Experimental data as given in US10646489B2, “Compositions and methods for increasing energy metabolism” (NuSirt Sciences, Inc., priority 2012, dated 2020).

What was measured:
diet-induced obese mouse = assay: Fasting blood glucose, insulin and HOMAIR in the diet-induced obese mouse; type: in vivo; conditions: 6 week treatment
Procedure: The interactive effects of icariin, a flavanol with specific PDE5 inhibitory properties, on glycemia and insulin sensitivity were assessed in the diet-induced obese mouse, which can be used as a murine model of type 2 diabetes. Male C57/BL6 mice were placed on standard low-fat chow (control; 10% energy from fat) or high fat (60% energy from fat, Research Diets # D12492, Research Diets, Inc, New Brunswick, N.J.) at six weeks of age to induce insulin resistance. […] The animals were then randomized to the following diets for an additional six weeks, with 10 animals per group: Low fat diet (LFD) control; High fat diet (HFD) control; HFD+leucine (24 g/kg diet, a two-fold increase over control levels)1 HFD+leucine (24 g/kg diet)+icariin (25 mg/kg diet). […] Mice were fasted overnight (˜16 hours) prior to measurement of fasting blood glucose, insulin and glucose tolerance. Glucose tolerance was determined following measurement of fasting glucose via intraperitoneal administration of glucose (1.2 g/kg body weight) followed by blood glucose measurement at 15, 30, 60, 90 and 120 minutes. Post-prandial glucose was measured within one hour of cessation of eating. Insulin tolerance was measured via an insulin tolerance test (ITT). Food was removed 4-6 hours prior to ITT, and baseline blood glucose measured. The mice were then injected intraperitoneally with insulin (1.2 U/kg body weight) and blood glucose was measured 15, 30, 60, 90 and 120 minutes following insulin injection. The homeostasis model assessment of insulin resistance (HOMAIR) was used as a screening index of changes in insulin sensitivity. HOMAIR is calculated via standard formula from fasting plasma insulin and glucose as follows: HOMAIR=[Insulin (uU/mL)×glucose (mM)]/22.5. The plasma glucose and insulin concentrations were measured using the Glucose Assay Kit from Biovision (Milpitas, Calif.) and the Insulin kit from Millipore (Billerica, Mass.), respectively. CRP levels in plasma were determined by ELISA (CRP: Life Diagnostics, West Chester, Pa.).

3T3-L1 adipocytes = assay: Glucose utilization (extracellular acidification response to glucose injection) in 3T3-L1 adipocytes / adipocytes; type: cell-based; conditions: 3T3-L1 cells; leucine alone; p<0.05
Procedure: Glucose utilization was measured as extracellular acidification response to glucose injection. *p=0.05. […] Treatment with 0.5 mM leucine corresponds to a circulating level of the same molarity achieved by administering about 1,125 mg of dietary leucine to a human subject. Treatment with 0.25 mM leucine corresponds to a circulating level of the same molarity achieved by administering about 300 mg of dietary leucine to a human subject.

Substance: leucine
- reduction in HOMAIR vs. untreated HFD mice (diet-induced obese mouse): ~30%
- reduction in circulating insulin during fasting vs. untreated HFD mice (diet-induced obese mouse): ~25%
- reduction in fasting glucose vs. untreated HFD mice (diet-induced obese mouse): ~20%
- glucose utilization, agent alone (3T3-L1 adipocytes): 48.6%
